Measured values from PubChem BioAssay AID1963828 (Molecular Pharmacology Branch, DTP, NCI, 2024).

Tested on: 991263-137-R1-J2-PDC complex spheroid viability
Test: Anticancer human tumor 991263-137-R1-J2-PDC patient-derived colon adenocarcinoma cell line growth inhibition [POLQ]
Details: for IC50: curve of first compound; for viability, T/C: stronger effect = lower value
Method: Multicellular complex tumor spheroid response to Polymerase (POL) inhibitors (novobiocin, ART-558, RP6685) in combination with a variety of drugs and investigational agents in selected tumor cell lines
The POL inhibitors (novobiocin, ART-558, and RP6685) were evaluated both individually and in combination with standard of care and investigational anticancer small molecules within a complex spheroid model of solid tumors. . Complex spheroids include a stromal component modeled by human endothelial cells (HUVEC) and fibroblasts modeled by human mesenchymal stem cells (MSCs). The concentration ranges selected for each drug and investigational agent were based upon clinically achievable concentrations if the clinical Cmax of the agent was known.
Compounds. The drugs and investigational agents: novobiocin (NSC847541), ART-558 (NSC835418), RP-6685 (NSC848927), peposertib (NSC802822), ceralasertib (NSC780249), elimusertib (NSC800525), camonsertib (NSC841442), AZD-1390 (NSC803789), olaparib (NSC753686), talazoparib (NSC767125), rucaparib (NSC756644), sotorasib (NSC818433), MRTX-1133 (NSC836407), SN-38 (NSC673596), topotecan (NSC609699), epotoside (NSC141540), doxorubicin (NSC123127), gemcitabine (NSC613327), 5-fluorouracil (NSC19893), paclitaxel (NSC125973), vemurafenib (NSC761431), MSA-2 (NSC828583), SN-011 (NSC837082), adavosertib (NSC754352), prexasertib (NSC758257), carboplatin (NSC241240) and oxaliplatin (NSC266046), were obtained from the National Cancer Institute (NCI) Developmental Therapeutics Program Chemical Repository (21). The FDA-approved anticancer drug set is available from the Developmental Therapeutics Program at https://dtp.cancer.gov/organization/dscb/obtaining/. […] The stock solutions were prepared in dimethyl sulfoxide (DMSO, Sigma-Aldrich, St. Louis, MO, cat. D2650), except for the platinum compounds which were prepared in saline (Quality Biological, Gaithersburg, MD, cat. 114-055-101), at 800-fold the tested concentration and stored at -70 degrees C prior to their use. All drugs and investigational agents were tested over a range starting from a high concentration at or near the clinical Cmax and decreasing in half-log increments. If the clinical Cmax for an agent had not been determined, the highest concentration tested was 10 microM, except for SN-38, which was tested at a high concentration of 1 microM.
Cell Culture. All cells were maintained in an incubator at 37 degrees C and 5% CO2 with 95% humidity. The PDC lines were cultured according to standard operating procedures established by the NCI PDMR (https://pdmr.cancer.gov). Table 3 of the manuscript, lists the cell lines along with the number of the three cell types plated to form the mct-spheroids and media for tumor cell growth. After thawing, all PDC lines, except 997537-175-T-J1-PDC and 415267-285-R-J2-PDC, were cultured in Matrigel-coated flasks prepared with a working solution of 1X Ham's F-12 nutrient mix, without supplementation (Thermo Fisher Scientific, cat. 11765054), 100 U/mL penicillin-streptomycin (Thermo Fisher Scientific, cat. 15140122), and 2.5% Matrigel (Corning Inc., Corning, NY, cat. 354248) for the first three passages. The two PDC lines 997537-175-T-J1-PDC and 415267-285-R-J2-PDC were cultured on uncoated flasks. The 857933-349-R-J2-PDC line was cultured in 6C/Colon 1B media containing advanced DMEM/F-12 (Thermo Fisher Scientific, cat. 12634028), 10 mM HEPES (Thermo Fisher Scientific, cat. 15630080), 1X GlutaMAX supplement (Thermo Fisher Scientific, cat. 35050061), 0.1 mg/mL primocin (InvivoGen, San Diego, CA, cat. ant-pm-2), 10% defined fetal bovine serum, heat inactivated (HyClone Laboratories Inc., Logan, UT, cat. SH30070.03HI), 50% L-WRN conditioned media (ATCC, cat. CRL-3276), 1.25 mM N-Acetyl-L-cysteine (Sigma-Aldrich, cat. A9165), 10 mM nicotinamide (Sigma-Aldrich, cat. N0636), 1X B-27 supplement (Thermo Fisher Scientific, cat. 17504044), 1X N-2 supplement (Thermo Fisher Scientific, cat. […]

[1] = second compound 0.0316 µM, first compound 0.0316 µM
[2] = second compound 0.0316 µM, first compound 0.1 µM
[3] = second compound 0.0316 µM, first compound 0.316 µM
[4] = second compound 0.0316 µM, first compound 1 µM
[5] = second compound 0.0316 µM, first compound 3.16 µM
[6] = second compound 0.0316 µM, first compound 10 µM
[7] = second compound 0.1 µM, first compound 0.0316 µM
[8] = second compound 0.1 µM, first compound 0.1 µM
[9] = second compound 0.1 µM, first compound 0.316 µM
[10] = second compound 0.1 µM, first compound 1 µM
[11] = second compound 0.1 µM, first compound 3.16 µM
[12] = second compound 0.1 µM, first compound 10 µM
[13] = second compound 0.316 µM, first compound 0.0316 µM
[14] = second compound 0.316 µM, first compound 0.1 µM
[15] = second compound 0.316 µM, first compound 0.316 µM
[16] = second compound 0.316 µM, first compound 1 µM
[17] = second compound 0.316 µM, first compound 3.16 µM
[18] = second compound 0.316 µM, first compound 10 µM
[19] = second compound 1 µM, first compound 0.0316 µM
[20] = second compound 1 µM, first compound 0.1 µM
[21] = second compound 1 µM, first compound 0.316 µM
[22] = second compound 1 µM, first compound 1 µM
[23] = second compound 1 µM, first compound 3.16 µM
[24] = second compound 1 µM, first compound 10 µM
[25] = second compound 3.16 µM, first compound 0.0316 µM
[26] = second compound 3.16 µM, first compound 0.1 µM
[27] = second compound 3.16 µM, first compound 0.316 µM
[28] = second compound 3.16 µM, first compound 1 µM
[29] = second compound 3.16 µM, first compound 3.16 µM
[30] = second compound 3.16 µM, first compound 10 µM
[31] = second compound 10 µM, first compound 0.0316 µM
[32] = second compound 10 µM, first compound 0.1 µM
[33] = second compound 10 µM, first compound 0.316 µM
[34] = second compound 10 µM, first compound 1 µM
[35] = second compound 10 µM, first compound 3.16 µM
[36] = second compound 10 µM, first compound 10 µM
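Also: spheroids exposed to compounds for 7 days before readout.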
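For viability, T/C in this document: 100% = DMSO vehicle control viability.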

## Nc1ccn(C2OC(CO)C(O)C2(F)F)c(=O)n1 (centres undefined) + Cc1cccc(N(C)C(=O)C2C(O)CCN2c2nc(C)cc(C(F)(F)F)c2C#N)c1
Second compound 0.0316 µM
  IC50: 873 nM
Second compound 0.1 µM
  IC50: 1310 nM
Second compound 0.316 µM
  IC50: 1150 nM
Second compound 1 µM
  IC50: 1910 nM
Second compound 3.16 µM
  IC50: 3040 nM
Second compound 10 µM
  IC50: 2030 nM
[1]
  viability, T/C: 85.6%
[2]
  viability, T/C: 74.6%
[3]
  viability, T/C: 57.2%
[4]
  viability, T/C: 48%
[5]
  viability, T/C: 52.4%
[6]
  viability, T/C: 42.4%
[7]
  viability, T/C: 99.4%
[8]
  viability, T/C: 66.4%
[9]
  viability, T/C: 60.6%
[10]
  viability, T/C: 62.4%
[11]
  viability, T/C: 40.3%
[12]
  viability, T/C: 41.5%
[13]
  viability, T/C: 82.6%
[14]
  viability, T/C: 70.5%
[15]
  viability, T/C: 54.9%
[16]
  viability, T/C: 52.6%
[17]
  viability, T/C: 48.4%
[18]
  viability, T/C: 38.5%
[19]
  viability, T/C: 75.6%
[20]
  viability, T/C: 63.8%
[21]
  viability, T/C: 53.1%
[22]
  viability, T/C: 50%
[23]
  viability, T/C: 53.6%
[24]
  viability, T/C: 46%
[25]
  viability, T/C: 69.2%
[26]
  viability, T/C: 64.2%
[27]
  viability, T/C: 54.7%
[28]
  viability, T/C: 54%
[29]
  viability, T/C: 53.2%
[30]
  viability, T/C: 45%
[31]
  viability, T/C: 80.2%
[32]
  viability, T/C: 70.3%
[33]
  viability, T/C: 63.5%
[34]
  viability, T/C: 49.6%
[35]
  viability, T/C: 51.8%
[36]
  viability, T/C: 41.5%

## CC1COCCN1c1cc(-c2ccnn2C)c2ccnc(-c3ccn[nH]3)c2n1 (centres undefined) + Cc1cccc(N(C)C(=O)C2C(O)CCN2c2nc(C)cc(C(F)(F)F)c2C#N)c1
Second compound 0.0316 µM
  IC50: 948 nM
Second compound 0.1 µM
  IC50: 1000 nM
Second compound 0.316 µM
  IC50: 770 nM
Second compound 1 µM
  IC50: 990 nM
Second compound 3.16 µM
  IC50: 1430 nM
Second compound 10 µM
  IC50: 851 nM
[1]
  viability, T/C: 99.7%
[2]
  viability, T/C: 96.8%
[3]
  viability, T/C: 81.5%
[4]
  viability, T/C: 47.6%
[5]
  viability, T/C: 36.2%
[6]
  viability, T/C: 29.4%
[7]
  viability, T/C: 125%
[8]
  viability, T/C: 97.6%
[9]
  viability, T/C: 81.8%
[10]
  viability, T/C: 45.2%
[11]
  viability, T/C: 35.7%
[12]
  viability, T/C: 33.5%
[13]
  viability, T/C: 94.4%
[14]
  viability, T/C: 110%
[15]
  viability, T/C: 75.4%
[16]
  viability, T/C: 44.3%
[17]
  viability, T/C: 35.1%
[18]
  viability, T/C: 28.8%
[19]
  viability, T/C: 90.3%
[20]
  viability, T/C: 99.3%
[21]
  viability, T/C: 64.3%
[22]
  viability, T/C: 53.3%
[23]
  viability, T/C: 39.3%
[24]
  viability, T/C: 30.7%
[25]
  viability, T/C: 88.8%
[26]
  viability, T/C: 114%
[27]
  viability, T/C: 89%
[28]
  viability, T/C: 58.2%
[29]
  viability, T/C: 32.9%
[30]
  viability, T/C: 31.6%
[31]
  viability, T/C: 103%
[32]
  viability, T/C: 104%
[33]
  viability, T/C: 78.3%
[34]
  viability, T/C: 46%
[35]
  viability, T/C: 34.9%
[36]
  viability, T/C: 32.1%
